Data as given in patent US20140081017A1, “Histone Deacetylase Inhibitors for Enhancing Activity of Antifungal Agents” (METHYLGENE INC., priority 2012, published 2014).
In brackets after ≈: the same amount, converted by molar mass. Read-outs that look alike come from different tables or passages of the source.

What was measured:
[1] = system: Candida parapsilosis; test: Minimal Inhibitory Concentration (MIC) assay, broth microdilution per CLSI; type: cell-based; settings: for MIC: Lodderomyces parapsilosis, read-out: Minimum Inhibitory Concentrations against Yeast Isolates, Candida parapsilosis;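 for all read-outs here: two read times 24 hr and 48 hr of incubation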
Protocol: (§1) The in vitro activities of the inventive compounds (compound(s) herein) against fungi and/or yeasts were determined with isolates Candida albicans, Candida glabrata and Candida parapsilosis. The comparator compounds included fluconazole, caspofungin and amphotericin B.
(§2) The compounds were supplied as a powder, and were dissolved in dimethylsulfoxide (DMSO) the day of assay. Stock solutions were prepared at 10 mg/mL and diluted to a starting stock concentration of 2.56 mg/mL. Amphotericin B was dissolved in DMSO to a stock concentration of 2.56 mg/mL. Fluconazole was dissolved in deionized water to a stock concentration of 2.56 mg/mL. Caspofungin was received as a stock solution of 3.2 mg/mL in DMSO and was diluted to a starting stock concentration of 2.56 mg/mL.
(§3) The test organisms and reference isolates were streaked for isolation on Sabouraud agar medium (yeasts) or potato dextrose agar (fungi). Colonies were picked by swab from the medium and resuspended in the appropriate broth containing cryoprotectant. The suspensions were aliquoted into cryogenic vials and maintained at −80° C.
(§4) Prior to testing, the yeast isolates were streaked from the frozen vials onto Sabouraud dextrose agar. The plates were incubated overnight at 35° C. The fungal isolate was grown on potato dextrose agar slants and was incubated for 7-10 days at room temperature.
(§5) Both yeast and fungal isolates were tested in RPMI medium buffered with 0.165 M MOPS (3-(N-morpholino)propanesulfonic acid). The pH of the medium was adjusted to 7.0 with 1 N NaOH. The medium was sterile filtered using a 0.2 um PES (polyethersulfone) filter and stored at 4° C. until used.
(§6) The MIC assay method followed the procedure described by the Clinical and Laboratory Standards Institute (CLSI; 1, 2, 3) and employed automated liquid handlers to conduct serial dilutions and liquid transfers. Automated liquid handlers included the Multidrop 384 (Labsystems, Helsinki, Finland), Biomek 2000 and Biomek FX (Beckman Coulter, Fullerton Calif.). The wells in columns 2-12 in standard 96-well microdilution plates (Costar 3795) were filled with 150 ul of 100% DMSO. These would become the ‘mother plates’ from which ‘daughter’ or test plates would be prepared. The compounds (300 uL at 40× the desired top concentration in the test plates) were dispensed into the appropriate well in Column 1 of the mother plates. The Biomek 2000 was used to make serial 1:1 dilutions through Column 11 in the “mother plate”. The wells of Column 12 contained no compounds and were the organism growth control wells.
(§7) The daughter plates were loaded with 185 uL per well of RPMI described above using the Multidrop 384. The daughter plates were prepared using the Biomek FX which transferred 5 μL of the compound solution from each well of a mother plate to the corresponding well of the daughter plate in a single step.
(§8) Standardized inoculum of each organism was prepared per CLSI methods. For yeast isolates, colonies were picked from the streak plate and a suspension was prepared in 0.85% saline. For the fungal isolate, 1 mL of 0.85% saline was dispensed onto the potato dextrose agar slant that had been inoculated 7-10 days previously. Using a swab, a suspension of the fungus was made. After a short time to allow the heavy particles to settle out, a small quantity of the supernatant was dispensed into 0.85% saline and the suspension adjusted to equal a 0.5 McFarland turbidity standard. Both yeast and fungal isolates were diluted 1:100 in RPMI and then transferred to compartments of sterile reservoirs divided by length (Beckman Coulter). The Biomek 2000 was used to inoculate the plates. Daughter plates were placed on the Biomek 2000 work surface reversed so that inoculation took place from low to high compound concentration. The Biomek 2000 delivered 10 μL of standardized inoculum into each well. Thus, the wells of the daughter plates ultimately contained 185 uL of RPMI, 5 uL of the compound solution, and 10 uL of inoculum. […]

[2] = system: Candida glabrata; test: as above; type: cell-based; settings: for MIC: Nakaseomyces glabratus, read-out: Minimum Inhibitory Concentrations against Yeast Isolates, Candida glabrata;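 for all read-outs here: two read times 24 hr and 48 hr of incubation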
Protocol: as §1, §2, §3, §4, §5, §6, §7, §8

[3] = system: Candida albicans; test: as above; type: cell-based; settings: for MIC: Candida albicans, read-out: Minimum Inhibitory Concentrations against Yeast Isolates, Candida albicans;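 for all read-outs here: two read times 24 hr and 48 hr of incubation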
Protocol: as §1, §2, §3, §4, §5, §6, §7, §8

[4] = system: C. glabrata; test: Checkerboard FIC assay in combination with fluconazole (MIC alone and in combination, FICI); type: cell-based, Candida glabrata; settings: for FICI of combination resulting in fluconazole MIC of: 2 ug/mL / FICI of combination resulting in fluconazole MIC of: 4 ug/mL / FICI of combination resulting in fluconazole MIC of: 8 ug/mL: FICI calculated using a fluconazole MIC of 16 μg/mL; for FICI of combination resulting in fluconazole MIC of: 2 ug/mL (value in parenthesis) / FICI of combination resulting in fluconazole MIC of: 4 ug/mL (value in parenthesis) / FICI of combination resulting in fluconazole MIC of: 8 ug/mL (value in parenthesis): FICI using a fluconazole MIC of 128 μg/mL; for MIC: Nakaseomyces glabratus; for Multiple of compound MIC to synergize fluconazole MIC to 2 ug/mL / Multiple of compound MIC to synergize fluconazole MIC to 4 ug/mL / Multiple of compound MIC to synergize fluconazole MIC to 8 ug/mL: concentration in combination as multiple of the compound's MIC alone; for Multiple of compound MIC to synergize fluconazole MIC to 2 ug/mL: fluconazole MIC 2 ug/mL; for Multiple of compound MIC to synergize fluconazole MIC to 4 ug/mL: fluconazole MIC 4 ug/mL; for Multiple of compound MIC to synergize fluconazole MIC to 8 ug/mL: fluconazole MIC 8 ug/mL; for Concentration of Methylgene compound to synergize fluconazole MIC to 2 ug/mL / Concentration of Methylgene compound to synergize fluconazole MIC to 4 ug/mL / Concentration of Methylgene compound to synergize fluconazole MIC to 8 ug/mL: in combination with fluconazole; for Concentration of Methylgene compound to synergize fluconazole MIC to 2 ug/mL: fluconazole MIC lowered to 2 ug/mL; for Concentration of Methylgene compound to synergize fluconazole MIC to 4 ug/mL: fluconazole MIC lowered to 4 ug/mL; for Concentration of Methylgene compound to synergize fluconazole MIC to 8 ug/mL: fluconazole MIC lowered to 8 ug/mL
Protocol: The ability of the compounds to synergize with azoles against C. glabrata was evaluated by the checkerboard assay, a common laboratory method used to evaluate synergy, antagonism, and indifference using fractional inhibitory concentrations (FICs) and FIC indices (FICI).
The test compounds were supplied as a powder and dissolved in dimethylsulfoxide (DMSO) on the day of assay. Stock solutions were prepared at 640 ug/mL. Fluconazole was dissolved in deionized water to a stock concentration of 320 ug/mL. All test articles were in solution under these conditions.
as §3, §4, §5
FIC values were determined using a broth microdilution method (CLSI; 1, 3). To prepare the test plates, automated liquid handlers (Multidrop 384, Labsystems, Helsinki, Finland; Biomek 2000 and Biomek FX, Beckman Coulter, Fullerton Calif.) were used to conduct serial dilutions and liquid transfers.
The wells of standard 96-well microdilution plates (Costar 3795) were filled with 150 uL of DMSO in columns 2-12. Three hundred microliters of each test compound was added to each well in Column 1 of the plates. The Biomek 2000 was used to make eleven 2-fold serial dilutions in each of these “test compound mother” plates. The wells of the “fluconazole mother plates” were filled with 150 uL of sterile water in rows B-H. Row A of these plates was filled with 300 uL of the fluconazole stock solution. Serial 2-fold dilutions were then prepared from top to bottom by hand, using a multichannel pipette in rows B-G. The “daughter plates” were loaded with 180 uL of RPMI using the Multidrop 384. The Biomek FX was used to transfer 5 uL of compound solution from each well of a fluconazole mother plate to the corresponding well in all of the daughter plates in a single step. Then the Biomek FX was used to transfer 5 uL of compound solution from each well of a test compound mother plate to the corresponding well of the corresponding test compound daughter plate (already containing fluconazole at the appropriate concentrations) in a single step. Row H and Column 12 each contained serial dilutions of the test agent and fluconazole alone, respectively, for determination of the MIC.
Standardized inoculum of each organism was prepared per CLSI methods (CLSI; 1, 3). For yeast isolates, colonies were picked from the primary plate and a suspension was prepared in 0.85% saline to equal a 0.5 McFarland turbidity standard. For the fungal isolate, 1 mL of 0.85% saline was dispensed onto a potato dextrose agar slant onto which the isolate had been inoculated 7-10 days previously. Using a swab, a suspension of the fungus was made. After a short time to allow the heavy particles to settle out, a small quantity of the supernatant was dispensed into 0.85% saline and the suspension was adjusted to equal a 0.5 McFarland turbidity standard. Both yeast and fungal isolates were diluted 1:100 in RPMI and then transferred to compartments of sterile reservoirs divided by length (Beckman Coulter). The Biomek 2000 was used to inoculate the plates. […]

[5] = 24 hr reading (first value of cell 24 hr/48 hr)
[6] = 48 hr reading (second value of cell 24 hr/48 hr)
[7] = MIC of the example compound alone against C. glabrata in the checkerboard assay, approximately 48 hr, read-out: Methylgene MIC
[8] = test compound alone, C. glabrata, approx. 48 hr at 35° C., read-out: Compound MIC

SMILES	FICI of combination resulting in fluconazole MIC of: 2 ug/mL ([4]; C. glabrata)	FICI of combination resulting in fluconazole MIC of: 4 ug/mL ([4]; C. glabrata)	FICI of combination resulting in fluconazole MIC of: 8 ug/mL ([4]; C. glabrata)	FICI of combination resulting in fluconazole MIC of: 2 ug/mL (value in parenthesis) ([4]; C. glabrata)	FICI of combination resulting in fluconazole MIC of: 4 ug/mL (value in parenthesis) ([4]; C. glabrata)	FICI of combination resulting in fluconazole MIC of: 8 ug/mL (value in parenthesis) ([4]; C. glabrata)	MIC [4, 7]	MIC [4, 8]	Multiple of compound MIC to synergize fluconazole MIC to 2 ug/mL [4]	Multiple of compound MIC to synergize fluconazole MIC to 4 ug/mL [4]	Multiple of compound MIC to synergize fluconazole MIC to 8 ug/mL [4]	Concentration of Methylgene compound to synergize fluconazole MIC to 2 ug/mL ([4]; C. glabrata)	Concentration of Methylgene compound to synergize fluconazole MIC to 4 ug/mL ([4]; C. glabrata)	Concentration of Methylgene compound to synergize fluconazole MIC to 8 ug/mL ([4]; C. glabrata)	MIC [1, 5]	MIC [1, 6]	MIC [2, 5]	MIC [2, 6]	MIC [3, 5]	MIC [3, 6]	also measured
C[C@@H]1[C@H](O)[C@@H](C)/C=C/C=C/C=C/C=C/C=C/C=C/C=C/[C@H](O[C@@H]2O[C@H](C)[C@@H](O)[C@H](N)[C@@H]2O)C[C@@H]2O[C@](O)(C[C@@H](O)C[C@@H](O)[C@H](O)CC[C@@H](O)C[C@@H](O)CC(=O)O[C@H]1C)C[C@H](O)[C@H]2C(=O)O [Amphotericin B, reference compound]	–	–	–	–	–	–	–	–	–	–	–	–	–	–	–	–	–	–	–	–	Minimum Inhibitory Concentrations against Yeast Isolates, Candida parapsilosis [1, 5]: 0.25 µg/mL; Minimum Inhibitory Concentrations against Yeast Isolates, Candida parapsilosis [1, 6]: 0.5 µg/mL; Minimum Inhibitory Concentrations against Yeast Isolates, Candida glabrata [2, 5]: < 0.06 µg/mL; Minimum Inhibitory Concentrations against Yeast Isolates, Candida glabrata [2, 6]: 0.5 µg/mL; Minimum Inhibitory Concentrations against Yeast Isolates, Candida albicans [3, 5]: < 0.06 µg/mL; Minimum Inhibitory Concentrations against Yeast Isolates, Candida albicans [3, 6]: 0.25 µg/mL
O=C(Cc1csc(CCCCc2ccccc2)n1)NO [Example 1, N-hydroxy-2-(2-(4-phenylbutyl)thiazol-4-yl)acetamide]	0.625	0.500	0.625	0.516	0.281	0.188	8 µg/mL	8 µg/mL	(½x)	(¼x)	(⅛x)	4 µg/mL	2 µg/mL	1 µg/mL	32 µg/mL (≈ 110 µM)	32 µg/mL (≈ 110 µM)	> 64 µg/mL	> 64 µg/mL	32 µg/mL (≈ 110 µM)	32 µg/mL (≈ 110 µM)	–
O=C(Cc1cnc(CCCCc2ccccc2)s1)NO [Example 2, N-hydroxy-2-(2-(4-phenylbutyl)thiazol-5-yl)acetamide]	0.375	0.500	0.625	0.266	0.281	0.188	16 µg/mL	16 µg/mL	(¼x)	(¼x)	(⅛x)	4 µg/mL	4 µg/mL	2 µg/mL	64 µg/mL (≈ 220 µM)	64 µg/mL (≈ 220 µM)	> 64 µg/mL	> 64 µg/mL	64 µg/mL (≈ 220 µM)	64 µg/mL (≈ 220 µM)	–
CN(C)CCCOc1ccc(CCCCc2ccc(CC(=O)NO)cc2)cc1 [Example 17, 2-(4-(4-(4-(3-(dimethylamino)propoxy)phenyl)butyl)phe-nyl)-N-hydroxyacetamide]	–	–	–	–	–	–	–	–	–	–	–	–	–	–	> 64 µg/mL	> 64 µg/mL	> 64 µg/mL	> 64 µg/mL	> 64 µg/mL	> 64 µg/mL	–
O=C(Cc1ccc(CCCCc2ccc(OCCN3CCCC3)cc2)cc1)NO [Example 18, N-hydroxy-2-(4-(4-(4-(2-(pyrrolidin-1-yl)ethoxy)phenyl)butyl)phenyl)acetamide]	–	–	–	–	–	–	–	–	–	–	–	–	–	–	> 64 µg/mL	> 64 µg/mL	> 64 µg/mL	> 64 µg/mL	> 64 µg/mL	> 64 µg/mL	–
O=C(Cc1ccc(CCCCc2ccccc2)o1)NO [Example 62, N-hydroxy-2-(5-(4-phenylbutyl)furan-2-yl)acetamide]	–	–	–	–	–	–	–	–	–	–	–	–	–	–	32 µg/mL (≈ 117 µM)	32 µg/mL (≈ 117 µM)	32 µg/mL (≈ 117 µM)	32 µg/mL (≈ 117 µM)	32 µg/mL (≈ 117 µM)	32 µg/mL (≈ 117 µM)	–
